Laboratory results from PMC10731632, “Is Smaller Better? Cu^2+/Cu^+ Coordination Chemistry and Copper-64 Radiochemical Investigation of a 1,4,7-Triazacyclononane-Based Sulfur-Rich Chelator” (Inorganic Chemistry, 2023).

Assays:
[1] = design: method as in PMID 35807404; conditions: after 24 h; cited from earlier work
[2] = Acidity constants (pKa) of the free ligands by pH-dependent 1H NMR; type: physicochemical; conditions: water, T = 25 °C
Protocol: (§1) Subsequently, the acid–base properties of NO3S and TACN-n-Bu were appraised. This study is a prior fundamental step before the investigation of complexation equilibria, since the proton represents a competitor of the metal ion for the interaction with the donor sites having Brønsted and Lewis acid–base properties, such as the amines of the TACN scaffold. […] The ionic strength (I) was adjusted using 0.15 M NaNO3. […] Therefore, additional pKa measurements were performed in a 1:1 water/methanol mixture, where no precipitation was detected. The acidity constants of TACN-n-Bu were derived upon analysis of the pH-potentiometric titrations data and pH-dependent ^1H NMR spectra in water (Figure S9B). The acidity constant values of both ligands are gathered in Table 1 along with the values of the unsubstituted macrocycle (i.e., TACN) and the methyl-functionalized one (i.e., 1,4,7-trimethyl-1,4,7-triazacyclonane, TACN-Me) derived from the literature.[30]
However, the chemical shift of all of the other signals manifests a noticeable pH dependence. The most pronounced variation is experienced by the NCH2 protons of the ring, possibly because the deprotonation processes led to a marked relaxation of the ring constraint caused by the H^+−H^+ repulsions. An analogous pH dependency of the chemical shifts is observed for TACN-n-Bu, even if in this case a slowed exchange between the differently protonated forms can be recognized from the enlargement of the signals around pH = pKa,2. The data were fitted, and the corresponding protonation constants (Table 1) were obtained.
Small additions (∼μL) of HNO3 and/or NaOH were used to adjust the pH. The latter was measured as for the potentiometric measurements. Under highly acidic conditions, the pH was computed from the HNO3 concentration (pH = −logCH^+). An excitation sculpting pulse scheme was used to suppress the water signal.[32]
(§2) The thermodynamic data were elaborated with the least-squares fitting program PITMAP as described in our previous works.[22]−[25] […]

[3] = Formation kinetics of Cu2+ complexes by UV-vis spectroscopy (time to reach equilibrium); type: physicochemical; conditions: ambient temperature
Protocol: The formation kinetics of the Cu^2+ complexes with NO3S and TACN-n-Bu was qualitatively appraised by UV–vis spectroscopy at ambient temperature and different pH values to explore the time necessary to reach equilibrium. The spectrum of NO3S and TACN-n-Bu as free ligands is also reported for comparison purposes in Figure S15.
The formation kinetics of Cu^2+ complexes with NO3S and TACN-n-Bu was evaluated at different pH values at room temperature using UV–vis spectroscopy as previously reported.[24],[25] Briefly, equimolar amounts of Cu^2+ and the proper ligands were mixed, and the corresponding UV–vis spectra were recorded over time. The final concentrations were CCu^2+ = CL = 1.0 × 10^–4 M. The pH was controlled using the following buffers: HCl 10^–2 M (pH = 2), acetic acid/acetate (pH = 4), and 2-[4-(2-hydroxyethyl)piperazin-1-yl]ethanesulfonic acid (HEPES) (pH = 7.1).

[4] = Stability constants of Cu2+ complexes by UV-vis spectrophotometric batch titrations; pCu2+ calculation; type: physicochemical; conditions: for pCu^2+ (−log[Cu^2+]free): calculated at CL = 1 × 10^-5 M, CCu2+ = 1 × 10^-6 M, pH 7.4 from stability constants
Protocol: The stability constants (logβ) of the Cu^2+ complexes formed by NO3S and TACN-n-Bu were determined via UV–vis spectrophotometric titrations. Due to both the slow complexation kinetics observed at acidic pH (vide supra) and the high complex stability, batch titrations were conducted and heating was applied to speed up reaching the equilibrium condition.
The stability of the Cu^2+ complexes with TACN-n-Bu was assessed as well to investigate the role of the sulfanyl pendants in metal coordination. The UV–vis spectra recorded at different pH values are shown in Figure 3B, and the variation of the absorbance at λ = 295 nm is reported in Figure S16B. The pCu^2+ values were then computed (Figure 5): being defined as −log[Cu^2+]free, the higher the pCu^2+ value, the greater the stability of the considered metal–ligand complex.[23]−[25]
UV–vis pH-spectrophotometric titrations were carried out as previously reported by means of the out-of-cell method at T = 25 °C and I = 0.15 M NaNO3.[24],[25] Briefly, stock solutions of NO3S or TACN-n-Bu were mixed with Cu(NO3)2 in independent vials at a 1:1 metal-to-ligand ratio (CCu^2+ = CL = 1.0 × 10^–4 M). The pH was adjusted as described in the NMR experiments. The vials were sealed and heated to T = 60 °C in a thermostatic bath to ensure complete complexation and then cooled to ambient temperature. The absorption spectra were recorded, and equilibrium was considered to be reached when no variations in either the pH or the electronic spectra were detected over time.
The thermodynamic data were elaborated with the least-squares fitting program PITMAP as described in our previous works.[22]−[25] All equilibrium constants refer to the overall equilibrium pM^m+ + qH^+ + rL^l– ⇌ MpHqLr^pm+q–rl, where M = Cu^2+ and L = NO3S or TACN-n-Bu, respectively, and are defined as cumulative formation constants (logβpqr = [MpLqHr]/[M]^p[L]^q[H]^r).

[5] = Solubility in water observed during pKa measurements; type: physicochemical; conditions: basic pH, precipitate observed
Protocol: as §1
Potentiometric titrations were conducted using an automated titrating system (Metrohm 765 Dosimat) equipped with a combined glass electrode (Hamilton pH 0–14) and a Metrohm 713 pH meter at T = 25 °C under a N2 atmosphere. NaNO3 (0.15 M) was used to fix the ionic strength. Stock solutions of NO3S and TACN-n-Bu were freshly prepared by dissolution of the synthesized compounds (∼10^–3 M). […]

[6] = Acidity constants (pKa) of the free ligands by pH-potentiometric titration; type: physicochemical; conditions: T = 25 °C, I = 0.15 M NaNO3
Protocol: as §1
Potentiometric titrations were conducted using an automated titrating system (Metrohm 765 Dosimat) equipped with a combined glass electrode (Hamilton pH 0–14) and a Metrohm 713 pH meter at T = 25 °C under a N2 atmosphere. NaNO3 (0.15 M) was used to fix the ionic strength. Stock solutions of NO3S and TACN-n-Bu were freshly prepared by dissolution of the synthesized compounds (∼10^–3 M). To avoid carbonatation phenomena and facilitate the dissolution, prestandardized HNO3 (CH^+ = 4CL) was coadded to each ligand solution. The solubility of the ligands in water depends on pH: minimal values occur at pH > 12, where the noncharged, totally deprotonated form predominates. All of the titrations were conducted as previously described.[22]−[25] […] Each titration was performed independently, at least in quintuplicate.
as §2

[7] = Cyclic voltammetry of the copper complex of NO3S (Cu2+/Cu+ couple); Cu+ stability constant and pCu+; type: physicochemical
Protocol: To assess the ability of NO3S to stably bind Cu^+, cyclic voltammetry (CV) analysis was executed. The investigation was performed in aqueous solution at pH ranging from 3 to 12. The obtained cyclic voltammograms, reported in Figure 7, show a peak couple attributable to the quasi-reversible one-electron reduction–oxidation process of the Cu^2+/Cu^+ redox pair (Table S9). No variation of the voltammetric behavior after multiple reduction–oxidation cycles was observed either with time or with the scan rate (except for the increase in the current intensity, i). This outcome is extremely significant because it proves the ability of NO3S to stabilize both copper oxidation states throughout the investigated pH range on the time scale of the CV experiments.
As illustrated in Figure 7 and Table S9, a pH-dependent variation of the cyclic voltammograms was found. […]
Bulk electrolysis of the preformed Cu^2+-NO3S complexes was carried out in a two-compartment cell. […] The electrolysis was performed at a fixed potential equal to E = −0.35 V and monitored by linear scan voltammetry on a rotating disk electrode. […] No variations of the ^1H NMR spectra were detected after 2 days (tubes were stored under a normal atmosphere). […]

[8] = design: method as in Bianchi et al. [30]; conditions: I = 0.1 M KNO3, T = 25 °C; ref Bianchi et al. [30]; cited from earlier work
[9] = I = 0.15 M NaNO3, read-out: pKa, H2L^2+ ⇌ H^+ + HL^+
[10] = UV-vis spectrophotometric titrations, T = 25 °C, I = 0.15 M NaNO3

Structure (SMILES): CSCCN1CCN(CCSC)CCN(CCSC)CCN(CCSC)CC1 [DO4S, 1,4,7,10-tetrakis-[2-(methylsulfanyl)ethyl]-1,4,7,10-tetraazacyclododecane]
- Percentage of intact [64Cu]Cu2+ complex in human serum [1]: 20%

Structure (SMILES): CSCCN1CCN(CCSC)CCN(CCSC)CC1 [NO3S]
- pKa [2, 9]: 2.7 ± 0.02
- pKa ([2]; I = 0.15 M NaNO3, read-out: pKa, HL^+ ⇌ H^+ + L): 12.72 ± 0.08
- Time to reach Cu2+ complexation equilibrium ([3]; pH = 1.0, equimolar metal-to-ligand 10^-4 M): ~14 h
- Time to reach Cu2+ complexation equilibrium ([3]; pH = 4.0, equimolar metal-to-ligand 10^-4 M): ~0.167 h
- Time to reach Cu2+ complexation equilibrium ([3]; pH = 7.1 (neutral), equimolar metal-to-ligand 10^-4 M): < 0.017 h
- logβ, Cu^2+ + L + H2O ⇌ [CuL(OH)]^+ + H^+ [4, 10]: 9.08 ± 0.03
- logβ, Cu^2+ + L ⇌ [CuL]^2+ [4, 10]: 18.41 ± 0.05
- pCu^2+ (−log[Cu^2+]free) [4]: 14.3
- Increase in Cu2+ complex stability (pCu^2+) with respect to TACN-n-Bu ([4]; physiological pH): 6 orders of magnitude
- Solubility in water of the completely deprotonated neutral form (L) [5]: sparingly soluble
- pKa ([6]; 1:1 water/methanol, pH potentiometry in 1:1 water/methanol, read-out: pKa, H2L^2+ ⇌ H^+ + HL^+): 2.33 ± 0.04
- pKa ([6]; 1:1 water/methanol, pH potentiometry in 1:1 water/methanol, read-out: pKa, HL^+ ⇌ H^+ + L): 11.52 ± 0.01
- pCu^+ ([7]; calculated at CL = 10^-5 M, CCu+ = 10^-6 M, pH = 7.4): 14.0
- logβ, Cu^+ + L ⇌ [CuL]^+ ([7]; obtained from voltametric data, T = 25 °C, I = 0.15 M NaNO3): 18.36 ± 0.05

Structure (SMILES): O=C(O)CN1CCN(CC(=O)O)CCN(CC(=O)O)CC1 [NOTA, 1,4,7-triazacyclononane-1,4,7-triacetic acid, reference compound]
- pCu^2+ (−log[Cu^2+]free) [4]: 18.2

Structure (SMILES): C1CNCCNCCN1 [TACN, 1,4,7-triazacyclononane]
- pKa, H2L^2+ ⇌ H^+ + HL^+ [8]: 6.86
- pKa, H3L^3+ ⇌ H^+ + H2L^2+ [8]: 2.1
- pKa, HL^+ ⇌ H^+ + L [8]: 10.68

Structure (SMILES): CN1CCN(C)CCN(C)CC1 [TACN-Me, 1,4,7-trimethyl-1,4,7-triazacyclonane]
- pKa, H2L^2+ ⇌ H^+ + HL^+ [8]: 5.1
- pKa, H3L^3+ ⇌ H^+ + H2L^2+ [8]: –0.4
- pKa, HL^+ ⇌ H^+ + L [8]: 11.7

Structure (SMILES): CCCCN1CCN(CCCC)CCN(CCCC)CC1 [TACN-n-Bu, 1,4,7-tris-n-butyl-1,4,7-triazacyclononane]
- pKa [2, 9]: 5.04 ± 0.05
- Time to reach Cu2+ complexation equilibrium ([3]; neutral pH, equimolar metal-to-ligand 10^-4 M): 8 h
- logβ, Cu^2+ + HL^+ ⇌ [CuHL]^3+ [4, 10]: 6.2 ± 0.1
- logβ, Cu^2+ + HL^+ ⇌ [CuL]^2+ + H^+ [4, 10]: –0.04 ± 0.15
- pKa ([6]; water, pH potentiometry, read-out: pKa, H2L^2+ ⇌ H^+ + HL^+): 5 ± 0.05
